Results: ChEMBL document CHEMBL1139065, “Pyrazole-based factor Xa inhibitors containing N-arylpiperidinyl P4 residues” (Bioorg Med Chem Lett, 2007)

Tests used:
[1] = target: Coagulation factor X (Homo sapiens, UniProt P00742); assay: Inhibition of human factor 10a
[2] = system: Plasma; assay: Anticoagulant potency in human plasma assessed as concentration required to double prothrombin time; type: functional
[3] = Metabolic stability in human liver microsomes assessed as intrinsic clearance; type: ADME, Microsome
[4] = Apparent permeability across Caco-2 cells; conditions: human
[5] = Clearance in dog at 0.5 mg/kg, iv; conditions: in vivo
[6] = Half life in dog at 0.2 mg/kg, po; conditions: in vivo
[7] = in vivo; conditions: dog, po, 0.2 mg/kg
[8] = organism: Oryctolagus cuniculus; assay: Antithrombotic activity against rabbit arterio-venous shunt thrombosis model; type: functional, organism-based
[9] = target: Prothrombin (Homo sapiens, UniProt P00734); assay: Inhibition of thrombin
[10] = target: Trypsin (Homo sapiens, UniProt P07477+P07478+P35030); assay: Inhibition of trypsin; type: protein assay
[11] = Half life in human liver microsomes

Chain of Coagulation factor X (P00742 41-179 limits assumed): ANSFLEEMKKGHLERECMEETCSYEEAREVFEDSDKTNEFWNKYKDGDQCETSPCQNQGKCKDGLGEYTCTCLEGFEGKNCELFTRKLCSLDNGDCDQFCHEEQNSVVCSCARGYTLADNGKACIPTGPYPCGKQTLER
Chain of Coagulation factor X (P00742 235-488 limits assumed): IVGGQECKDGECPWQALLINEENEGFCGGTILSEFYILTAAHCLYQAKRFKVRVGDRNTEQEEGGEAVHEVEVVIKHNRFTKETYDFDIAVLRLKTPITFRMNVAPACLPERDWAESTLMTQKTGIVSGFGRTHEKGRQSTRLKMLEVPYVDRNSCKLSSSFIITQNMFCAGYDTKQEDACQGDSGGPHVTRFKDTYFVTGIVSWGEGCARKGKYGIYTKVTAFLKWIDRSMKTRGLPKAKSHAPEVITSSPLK

Row | SMILES | Ki [1] [nM] | PT [2] [µM] | other results
1 | COc1ccc(-n2nc(C(N)=O)c3c2C(=O)N(C2CCN(c4ccccc4CN(C)C)CC2)CC3)cc1 | 0.41 | 1 | –
2 | Nc1noc2ccc(-n3nc(C(F)(F)F)cc3C(=O)NC3CCN(c4ccccc4CN4CCC[C@H]4O)CC3)cc12 | 0.73 | 0.83 | microsomal CLint [3]: 40 µL/min/mg; Papp [4]: 0.2 ×10⁻⁶ cm/s; clearance [5]: 36.7 mL/min/kg
3 | CS(=O)(=O)c1ccccc1N1CCC(NC(=O)c2cc(C(F)(F)F)nn2-c2ccc3onc(N)c3c2)CC1=O (configuration not stated) | 92 | – | –
4 | COc1ccc(-n2nc(C(N)=O)c3c2C(=O)N(C2CCN(c4ccccc4CN(C)C(C)=O)CC2)CC3)cc1 | 23 | – | –
5 | CS(=O)(=O)c1ccccc1[C@H]1CC[C@@H](NC(=O)c2cc(C(F)(F)F)nn2-c2cccc(CN)c2)CC1 | 2000 | – | –
6 | Nc1noc2ccc(-n3nc(C(F)(F)F)cc3C(=O)NC3CCN(c4ccccc4CN4CCCC4)CC3)cc12 | 0.61 | 0.84 | half-life [6]: 5 h; microsomal CLint [3]: 29 µL/min/mg; bioavailability [7]: 26%; Papp [4]: 1.3 ×10⁻⁶ cm/s; EC50 [8]: 740 nM; clearance [5]: 48.3 mL/min/kg
7 | CNCc1ccccc1N1CCC(NC(=O)c2cc(C(F)(F)F)nn2-c2ccc3onc(N)c3c2)CC1 | 0.67 | 1.2 | half-life [6]: 0.3 h; bioavailability [7]: 1.7%; Papp [4]: 0.1 ×10⁻⁶ cm/s; clearance [5]: 107 mL/min/kg
8 | COc1ccc(-n2nc(C(F)(F)F)cc2C(=O)NC2CCN(c3ccccc3CN3CCCC3)CC2)cc1 | 29 | – | –
9 | CCN(C)Cc1ccccc1N1CCC(NC(=O)c2cc(C(F)(F)F)nn2-c2ccc3onc(N)c3c2)CC1 | 0.7 | 1.1 | half-life [6]: 2.5 h; microsomal CLint [3]: 29 µL/min/mg; bioavailability [7]: 23%; Papp [4]: 2.7 ×10⁻⁶ cm/s; clearance [5]: 71.7 mL/min/kg
10 | CS(=O)(=O)c1ccccc1[C@H]1CC[C@H](NC(=O)c2cc(C(F)(F)F)nn2-c2cccc(CN)c2)CC1 | 5.7 | – | –
11 | CS(=O)(=O)c1ccccc1N1CCC(NC(=O)c2cc(C(F)(F)F)nn2-c2ccc3onc(N)c3c2)CC1 | 1.7 | 2.8 | half-life [6]: 1.3 h; microsomal CLint [3]: 51 µL/min/mg; bioavailability [7]: 24%; Papp [4]: 1.7 ×10⁻⁶ cm/s; clearance [5]: 18.3 mL/min/kg
12 | COc1ccc(-n2nc(C(F)(F)F)cc2C(=O)NC2CCN(c3ccccc3CN(C)C)CC2)cc1 | 8.8 | – | –
13 | COc1ccc(-n2nc(C(F)(F)F)cc2C(=O)NC2CCN(c3ccccc3S(C)(=O)=O)CC2)cc1 | 14 | – | –
14 | CCN(CC)Cc1ccccc1N1CCC(N2CCc3c(C(N)=O)nn(-c4ccc(OC)cc4)c3C2=O)CC1 | 0.26 | 1.5 | –
15 | COc1ccc(-n2nc(C(F)(F)F)cc2C(=O)NC2CCN(c3ccccc3CN3CCOCC3)CC2)cc1 | 6.6 | – | –
16 | CNCc1ccccc1N1CCC(N2CCc3c(C(N)=O)nn(-c4ccc(OC)cc4)c3C2=O)CC1 | 1 | 1.8 | –
17 | CS(=O)(=O)c1ccccc1C1=CCC(NC(=O)c2cc(C(F)(F)F)nn2-c2cccc(CN)c2)CC1 (configuration not stated) | 3 | – | –
18 | CS(=O)(=O)c1ccccc1N1CCC(NC(=O)c2cc(C(F)(F)F)nn2-c2cccc(CN)c2)CC1 | 4.9 | – | –
19 | COc1ccc(-n2nc(C(N)=O)c3c2C(=O)N(C2CCN(c4ccccc4CN(C)S(C)(=O)=O)CC2)CC3)cc1 | 81 | – | –
20 | COc1ccc(-n2nc(C(N)=O)c3c2C(=O)N(C2CCN(c4ccccc4CN4CCOCC4)CC2)CC3)cc1 | 0.57 | 3.5 | –
21 | COc1ccc(-n2nc(C(N)=O)c3c2C(=O)N(C2CCN(c4ccccc4CN4CCCC4)CC2)CC3)cc1 | 0.26 | 1.2 | –
22 | CS(=O)(=O)c1ccccc1N1CCC(NC(=O)c2cc(C(F)(F)F)nn2-c2ccccc2CN)CC1 | 2.4 | – | –
23 | COc1ccc(-n2nc(C(N)=O)c3c2C(=O)N(C2CCN(c4ccccc4CN4CCC[C@@H]4O)CC2)CC3)cc1 | 0.87 | 2.5 | –
24 | COc1ccc(-n2nc(C(N)=O)c3c2C(=O)N(C2CCN(c4ccccc4S(C)(=O)=O)CC2)CC3)cc1 | 0.35 | 4.2 | Ki [9]: 1200 nM; half-life [6]: 0.8 h; Ki [10]: > 20000 nM; bioavailability [7]: 78%; half-life [11]: 1.95 h; Papp [4]: 1.5 ×10⁻⁶ cm/s; clearance [5]: 3.83 mL/min/kg
25 | COc1ccc(-n2nc(C(N)=O)c3c2C(=O)N(C2CCN(c4ccccc4S(N)(=O)=O)CC2)CC3)cc1 | 3.9 | – | –
